# Results taken from paper PMC10428208, “Phototoxicity of Tridentate Ru(II) Polypyridyl Complex with Expanded Bite Angles toward Mammalian Cells and Multicellular Tumor Spheroids” (Inorganic Chemistry, 2023).
# Like-named read-outs stand apart in the source and are kept apart here. Marks after values point to notes of the source that are not given here.
# How the values were obtained:
# [1] = test system: HL60 leukemia cells; parameters: method as in PMID 22553960; details: cited from earlier work
# [2] = test system: A549 cell monolayers; parameters: method as in PMID 22553960; details: cited from earlier work
# [3] = test system: HeLa cells; details: irradiation dose of 5 J/cm^2; cited from earlier work
# Text: It is important to highlight that a direct comparison between the other reported PIs is difficult to make because of the diversity of conditions used to determine PI values. Because PI is influenced by a range of factors, including the cell type extent of permeability of a given agent and the irradiation dose.[72] […] Based on control studies with untreated CHO, A549, and HPAC cell monolayers, we selecte ...
# [4] = test system: HPAC multicellular spheroids (3D); assay type: cell-based, human; details: 24 h treatment, 23.5 h recovery, CellTiter-Glo 3D, average of three plates
# Experimental: Spheroid viability was evaluated using a CellTiter-Glo 3D assay. Although the alamar blue assay is a robust and reliable option for 2D cell viability, the CellTiter-Glo 3D assay is specifically designed to penetrate deeper into 3D cell culture and thus offers better specificity for these studies. Cells were seeded in round-bottom 96 well plates at 2 × 10^4 cells per well and grown for 96 h. The cells were treated for 24 h and a media change performed. A 470 nm LED was used to irradiate the spheroids at 4.27 ± 0.41 J/cm^2 (30 min at 2.37 ± 0.23 mW/cm^2) and a dark control plate was performed simultaneously. Irradiation conditions were tested on untreated spheroids to confirm whether viability remained unaffected at this irradiation dosage before any experiments were performed. The spheroids were allowed to recover and the CellTiter-Glo 3D assay was performed to determine cell viability as per the manufacturer’s protocol. Percentage cell viability was determined relative to the untreated control spheroids.
# The dark and phototoxicity of the parent and peptide conjugates were also assessed in HPAC spheroids. […] Cell viability was determined using the CellTiter-Glo 3D luminescence-based assay, and viability assays were performed in triplicate. […] As in the 2D alamar blue assay protocol, % viability is calculated relative to untreated control spheroids.
# [5] = test system: HPAC 2D cell monolayers; assay type: cell-based, human
# Experimental: (§1) All cell monolayers were prepared as described above for the phototoxicity assay. A549 and CHO cells were treated at varying concentrations of the complexes and incubated for 30 min in the absence of light, HPAC were incubated for 2 h to allow uptake. A 470 nm blue light LED array was used to irradiate the cells in the wells at a total dose of 17 ± 1.64 J/cm^2 (2 h at 2.37 ± 0.23 mW/cm^2). A dark control plate was performed alongside all phototoxicity plates. Irradiation conditions were tested on untreated cells to confirm cells remained viable at this dose before any experiments were performed and each phototoxicity plate included untreated test wells for cell viability comparison. All viability assays were performed in triplicate.
# (§2) The test solutions were then decanted, and the wells replaced with phenol red free media. The phototoxicity plate was irradiated using a 470 nm LED, corresponding to which is close to the absorbance maximum associated with the ^1MLCT of the complex, total irradiation dose 17 ± 1.64 J/cm^2 (constituting 2 h at 2.37 ± 0.23 mW/cm^2) at 37 °C, and the control plate was maintained under the same conditions in the dark. The cells were then incubated for a further 21.5 h at 37 °C with 5% CO2 to allow for cell recovery. An alamar blue assay was performed to assess cell viability.
# The HPAC cells required a longer incubation period of 2 h prior to irradiation to account for slower uptake. […] In summary, Ru-bqp-ester is minimally toxic in the dark but highly phototoxic in all test cells when activated using a 470 nm LED. Furthermore, the peptide conjugates Ru-bqp-R8 and Ru-bqp-MPP show phototoxic potential in cancerous cell lines A549 and HPAC selected for analysis. The increased uptake of the MPP peptide conjugate into the mitochondria, as determined by our co-localization studies, could be linked to the higher phototoxicity of the complex in A549 and HPAC cells and also the increased dark toxicity in HPAC and CHO cell monolayers in comparison to the parent and R8 peptide conjugate.
# [6] = test system: A549 cells; details: read-out: IC50, dark toxicity; A549, 24 h incubation in the dark, alamar blue added immediately, no recovery, N=3
# Experimental: (§3) The alamar blue assay (Invitrogen) was used to assess the viability of A549, CHO, and HPAC cell monolayers treated with the Ru(II) probes, Ru-bqp-ester, Ru-bqp-MPP, Ru-bqp-R8. CHO, A549, and 2D HPAC cells were seeded in a 96-well plate (Nunc, flat bottom cell culture treated) at 1 × 10^4 cells per well, i.e., in 100 μL media for 24 h at 37 °C with 5% CO2. Ru-bqp-ester, Ru-bqp-R8, and Ru-bqp-MPP were added for 24 h at 37 °C and 5% CO2 in the absence of light. The alamar blue (Resazurin) assay was performed to measure cell viability by replacing the test solution with 100 μL of a 10% v/v media/resazurin solution and incubating for 5 h at 37 °C in the absence of light. Absorbance was measured using a BMG Labtech ClarioStar (plus) plate reader at 570 and 600 nm (corrected for background subtraction). Cell viability is presented as a percentage (%) compared to untreated control wells.
# (§4) The alamar blue (Resazurin) assay was used to assess cell viability of CHO, A549, and HPAC cell monolayers after 24 h incubation in the dark with the complexes and conjugates. In the presence of metabolically active cells, the alamar blue dye is reduced to resorufin and changes from navy blue to a pink color depending on the number of viable cells. Thus, this assay can be used as a simple direct indicator of cell viability. […]
# [7] = Photophysical measurements (luminescence lifetime, quantum yield); assay type: physicochemical
# Experimental: Absorbance measurements of the Ru(II) complexes at 20 μM were performed using a Jasco V670 spectrophotometer. Emission spectra were collected using a Varian Cary Eclipse fluorescence spectrophotometer and luminescent lifetime measurements were performed on a PicoQuant FluoTime 100 FLS TCSPC system using a 450 nm pulsed laser and an external pulse generator. Lifetime decay curves were analyzed using the PicoQuant Fluofit software with fitting criteria; 0.9 < X^2 < 1.1. For O2 sensitivity studies, the emission spectrum and luminescent lifetime of each complex (10 μM) were recorded under O2 saturation, and after N2 purge for 20 min. All measurements were performed in triplicate and reported as the mean ± SD.
# [8] = test system: CHO cells; assay type: cell-based, Chinese hamster; details: 24 h incubation in the dark, alamar blue added immediately, no recovery, N=3, read-out: IC50, dark toxicity
# Experimental: as §3, §4
# [9] = parameters: method as in doi:10.3390/organoids1020012, PMID 35485712; details: previously published, 298 K, deaerated MeOH/EtOH solution; printed in the MeCN row; cited from earlier work
# [10] = test system: HPAC cell monolayers; assay type: cell-based, human; details: 24 h incubation in the dark, alamar blue added immediately, no recovery, N=3, read-out: IC50, dark toxicity
# Experimental: as §3, §4
# [11] = test system: CHO cells; assay: Phototoxicity with dark control plate, 470 nm LED, alamar blue; assay type: cell-based, Chinese hamster; details: 30 min incubation, 470 nm LED 17 J/cm^2, alamar blue, triplicate, read-out: IC50 under irradiation
# Experimental: as §1
# as §2, with “The cells were then incubated for a further 21.5 h at 37 °C with 5% CO2 to allow for cell recovery. An alamar blue assay was performed to assess cell viability.” left out
# Similar to the phototoxicity studies in A549 cells, an incubation time of 30 min was selected for CHO cells to allow uptake. […] Cell viability was determined relative to untreated control wells using an alamar blue assay. […]
# [12] = test system: HPAC spheroids; assay: Uptake in spheroids, confocal imaging; details: 24 h incubation
# Experimental: HPAC cells were seeded in U-bottom 96 well-plates pre-treated with 0.5% polyHEMA [poly(2-hydroxyethyl methacrylate), Sigma in 95% ethanol] at 2 × 10^4 cells per well. The plate was then centrifuged at 700 rpm at 37 °C using a BMG Labtech ClarioStar (plus) plate reader for 10 min. The cells were incubated for 96 h to allow spheroid formation before any dye was added for imaging studies. Ru-bqp-ester, Ru-bqp-MPP, and Ru-bqp-R8 were added to the spheroids at 30 and 100 μM in the 96 well plates and after 24 h incubation, the spheroids were carefully transferred to an 8-chamber slide (ibidi), with a single spheroid per chamber, and directly imaged using a Leica TCS DMi8 confocal microscope (40× oil immersion objective). Hoechst 33342 nuclear stain (1 μg/mL) was added to the spheroids for 45 min as a contrast agent and excited using a 405 nm laser with emission collected between 425 and 475 nm. The Ru(II) complexes were excited using a white light laser at 490 nm and emission collected between 580 and 730 nm. Spheroid images were acquired using z-scanning across the z-axis of the samples. On average, 40–50 images were acquired per z-scan and used to obtain 3D spheroid reconstructions using Leica Application Suite X (LAS X) software.
# Confocal fluorescence imaging was performed to determine if the cellular uptake observed in 2D culture extends to 3D models. […]
# [13] = test system: A549 cells
# Experimental: as §1
# as §2, with “The phototoxicities of the Ru-bqp-ester, Ru-bqp-R8, and Ru-bqp-MPP were next compared across the three cell line monolayers. Two identical plates, a dark control and phototoxicity plate, were prepared and incubated with varying concentrations of Ru-bqp-ester, Ru-bqp-R8, and Ru-bqp-MPP for 30 min or 2 h depending on the cell line. The test” for “The test”
# To overcome potential efflux of the complexes from the A549 cells, a shorter complex incubation time of 30 min was selected prior to irradiation.
molecule,measurement,setting,value
"NCC(=O)CCC(=O)O [ALA, aminolevulinic acid]",PI,[1],> 18
same,PI,[2],4.2
Photofrin,PI,[3],> 10
[Ru(bqp)(bqpCOOEt)]^2+ [Ru-bqp-ester],IC50,"[4]; 470 nm LED 4.27 ± 0.41 J/cm^2 (30 min), read-out: IC50 light, HPAC multicellular spheroids (3D)",> 100 µM
same,IC50,"[4]; dark control plate, read-out: IC50 dark, HPAC multicellular spheroids (3D)",> 100 µM
same,IC50,"[5]; 2 h incubation, 470 nm LED 17 J/cm^2, read-out: IC50 under irradiation, HPAC cells",0.77 ± 0.11 µM
same,IC50,"[5]; dark control plate, 2 h incubation then recovery in the dark, alamar blue, average of three plates, triplicate per plate, read-out: IC50 dark, HPAC 2D cell monolayers",585 ± 6.28 µM
same,"PI (phototoxic index), HPAC 2D cell monolayers","[5]; ratio of dark to light IC50 values, 17 ± 1.64 J/cm^2 at 470 nm",760
same,IC50,[6],> 100 µM
same,τlum aerated,"[7]; MeCN, mean ± SD of triplicate",384 ± 1 ns
same,τlum aerated,"[7]; PBS (pH 7.4), 450 nm pulsed laser, TCSPC, mean ± SD of triplicate",782 ± 18 ns
same,τlum deaerated,"[7]; PBS (pH 7.4), deaerated (N2 purge 20 min), mean ± SD of triplicate",1320 ± 20 ns
same,emission lifetime on deaeration,"[7]; PBS buffer (pH 7.4), deaerated",over 1.3 μs
same,IC50,[8],> 100 µM
same,emission quantum yield Φ,[9],4%
same,τlum deaerated,[9],4300 ^a ns
same,IC50,[10],> 100 µM
same,IC50,[11],< 5 µM
same,uptake in HPAC spheroids,[12]; 30 μM,some uptake
same,uptake in HPAC spheroids,[12]; 100 μM,complete internalization
same,"cell viability, A549 dark control","[13]; dark control plate, 30 min incubation, up to 100 μM, not graphed",> 80%
same,A549 cells dead following photoirradiation,"[13]; dose of <5 μM, 30 min incubation, 470 nm LED 17 J/cm^2",More than 70%
same,IC50,"[13]; read-out: IC50 under irradiation, A549, 30 min incubation, 470 nm LED 17 ± 1.64 J/cm^2 (2 h), 21.5 h recovery, alamar blue",< 5 µM
